Source: patent publication US10392385B2, “N-((1-phenyl-9H-pyrido[3,4-b]indol-3-yl)methyl)cinnamamides as potential anticancer agents and preparation thereof” (Council of Scientific & Industrial Research, priority 2016, dated 2019)

Assays:
[1] = test system: NIH3T3 (mouse embryonic fibroblast cell line); assay: MTT cytotoxicity assay, NIH3T3; assay type: cell-based; details: 48 h of drug treatment (footnote), average of three experiments
Text: (§1) The N-((1-phenyl-9H-pyrido[3,4-b]indol-3-yl)methyl)cinnamamides (1a-h, 2a-h and 3a-h) have been tested against five human cancer cell lines such as A549 (lung cancer), MCF-7 (breast cancer), B16 (melanoma), HeLa (cervical cancer) and NIH3T3 (mouse embryonic fibroblast cancer). All the cancer cell lines (HeLa, A549, MCF-7 and B16) were procured from National Centre for Cell Sciences (NCCS, Pune, India) and NIH 3T3 cell line was obtained from American Type Culture Collection (Rockville, Md., USA). Stock cells were cultured in DMEM supplemented with 10% Fetal Bovine Serum (FBS), in an humidified atmosphere of 5% CO2 at 37° C. until they are 80% confluent. To study the cytotoxicity of the compounds, after 80% confluence, cells were trypsinized with 0.1% trypsin-EDTA and harvested by centrifugation at 500×g. Serial dilutions of cells were made from 1×10^6 to 1×10^3 cells per mL The cells were seeded in triplicate in a 96 well plate. […]. […] The cell viability was determined by measuring the ability of cells to transform MTT to a purple coloured formazan dye. The absorbance of samples at 570 nm was measured using a UV-Visible spectrophotometer. Percentage of viable cells was calculated by using the formula given below.
(§2) Where the OD570 (sample) corresponds to absorbance obtained from the wells treated with compound and OD570 (control) represents the absorbance from the wells in which no compound was added. For these compounds results are expressed as half maximal inhibitory concentration (IC50) values and the anticancer activity data of 1a-h, 2a-h and 3a-h are shown in Table 2.

MCF-7 (breast cancer) = assay: MTT cytotoxicity assay, MCF-7; assay type: cell-based; details: Homo sapiens, MCF7, average of three experiments
Text: as §1, §2

A549 (lung cancer) = assay: MTT cytotoxicity assay, A549; assay type: cell-based; details: Homo sapiens, 48 h of drug treatment (footnote), average of three experiments
Text: as §1
Where the OD570 (sample) corresponds to absorbance obtained from the wells treated with compound and OD570 (control) represents the absorbance from the wells in which no compound was added.

HeLa (cervical cancer) = assay: MTT cytotoxicity assay, HeLa; assay type: cell-based; details: Homo sapiens, of drug treatment (footnote), average of three experiments
Text: as §1, §2

B16 (melanoma) = assay: MTT cytotoxicity assay, B16; assay type: cell-based; details: 48 h of drug treatment (footnote), average of three experiments
Text: as §1, §2

SMILES	IC50 [1] [nM]	melting point [°C]	IC50 (MCF-7 (breast cancer)) [nM]	IC50 (A549 (lung cancer)) [nM]	IC50 (HeLa (cervical cancer)) [nM]	IC50 (B16 (melanoma)) [nM]
COc1cc(-c2nc(CNC(=O)/C=C/c3ccc(Cl)cc3)cc3c2[nH]c2ccccc23)cc(OC)c1OC [Compound 2f, (E)-3-(4-chlorophenyl)-N-((1-(3,4,5-trimethoxyphenyl)-9H-pyrido[3,4-b]indol-3-yl)methyl)acrylamide]	35.6 ± 2.1	148 to 150	17.5 ± 0.9	18.9 ± 1.7	26.8 ± 0.4	18.7 ± 1.1
O=C(/C=C/c1cccc(O)c1)NCc1cc2c([nH]c3ccccc32)c(-c2cccc(F)c2)n1 [Compound 1h, (E)-N-((1-(3-fluorophenyl)-9H-pyrido[3,4-b]indol-3-yl)methyl)-3-(3-hydroxyphenyl)acrylamide]	35.7 ± 2.2	142 to 148	19.2 ± 0.6	23.4 ± 0.8	27 ± 0.5	24.9 ± 0.5
COc1ccc(-c2nc(CNC(=O)/C=C/c3cccc(O)c3)cc3c2[nH]c2ccccc23)cc1 [Compound 3h, (E)-3-(3-hydroxyphenyl)-N-((1-(4-methoxyphenyl)-9H-pyrido[3,4-b]indol-3-yl)methyl)acrylamide]	37.2 ± 1.1	–	13.8	18.9 ± 1.4	22.3 ± 0.3	16.3 ± 0.3
O=C(/C=C/c1ccc(Cl)c(Cl)c1)NCc1cc2c([nH]c3ccccc32)c(-c2cccc(F)c2)n1 [Compound 1b, (E)-3-(3,4-dichlorophenyl)-N-((1-(3-fluorophenyl)-9H-pyrido[3,4-b]indol-3-yl)methyl)acrylamide]	39 ± 1.1	255 to 258	17 ± 1.2	18 ± 0.8	24.9 ± 0.4	18.9 ± 0.4
COc1ccc(-c2nc(CNC(=O)/C=C/c3ccc(Cl)cc3)cc3c2[nH]c2ccccc23)cc1 [Compound 3f, (E)-3-(4-chlorophenyl)-N-((1-(4-methoxyphenyl)-9H-pyrido[3,4-b]indol-3-yl)methyl)acrylamide]	38.3 ± 1.3	–	14.1	18.9 ± 1.1	21.6 ± 0.6	16.6 ± 0.5
COc1cc(/C=C/C(=O)NCc2cc3c([nH]c4ccccc43)c(-c3cc(OC)c(OC)c(OC)c3)n2)cc(OC)c1OC [Compound 2a, (E)-3-(3,4,5-trimethoxyphenyl)-N-((1-(3,4,5-trimethoxyphenyl)-9H-pyrido[3,4-b]indol-3-yl)methyl)acrylamide]	38.9 ± 2.5	–	16.5 ± 1.1	21.3 ± 0.9	23.5 ± 0.3	17.2 ± 0.4
COc1ccc(OC)c(/C=C/C(=O)NCc2cc3c([nH]c4ccccc43)c(-c3cccc(F)c3)n2)c1 [Compound 1e, (E)-3-(2,5-dimethoxyphenyl)-N-((1-(3-fluorophenyl)-9H-pyrido[3,4-b]indol-3-yl)methyl)acrylamide]	39.6 ± 1.8	228 to 230	17.5 ± 0.3	22.2 ± 1.1	21.87 ± 0.2	19.9 ± 0.7
COc1ccc(-c2nc(CNC(=O)/C=C/c3cc(OC)ccc3OC)cc3c2[nH]c2ccccc23)cc1 [Compound 3e, (E)-3-(2,5-dimethoxyphenyl)-N-((1-(4-methoxyphenyl)-9H-pyrido[3,4-b]indol-3-yl)methyl)acrylamide]	34.4 ± 1.6	130 to 135	16.5 ± 0.7	18.9 ± 1.2	25.4 ± 0.3	22.1 ± 0.4
COc1cc(-c2nc(CNC(=O)/C=C/c3cc(F)cc(F)c3)cc3c2[nH]c2ccccc23)cc(OC)c1OC [Compound 2d, (E)-3-(3,5-difluorophenyl)-N-((1-(3,4,5-trimethoxyphenyl)-9H-pyrido[3,4-b]indol-3-yl)methyl)acrylamide]	36.3 ± 1.7	228 to 230	19.6 ± 1.1	21.6 ± 1.2	23.8 ± 0.3	24.1 ± 0.7
COc1cc(-c2nc(CNC(=O)/C=C/c3ccc(Cl)c(Cl)c3)cc3c2[nH]c2ccccc23)cc(OC)c1OC [Compound 2b, (E)-3-(3,4-dichlorophenyl)-N-((1-(3,4,5-trimethoxyphenyl)-9H-pyrido[3,4-b]indol-3-yl)methyl)acrylamide]	39.2 ± 1.9	–	17.5 ± 1.4	20.4 ± 0.7	25.87 ± 0.2	16.9 ± 0.7
COc1ccc(-c2nc(CNC(=O)/C=C/c3ccc(O)c(OC)c3)cc3c2[nH]c2ccccc23)cc1 [Compound 3g, (E)-3-(4-hydroxy-3-methoxyphenyl)-N-((1-(4-methoxyphenyl)-9H-pyrido[3,4-b]indol-3-yl)methyl)acrylamide]	39.9 ± 1.6	215 to 220	17.2 ± 0.5	21.2 ± 1.5	24.87 ± 0.2	19.8 ± 0.5
COc1cc(-c2nc(CNC(=O)/C=C/c3ccc(F)cc3)cc3c2[nH]c2ccccc23)cc(OC)c1OC [Compound 2c, (E)-3-(4-fluorophenyl)-N-((1-(3,4,5-trimethoxyphenyl)-9H-pyrido[3,4-b]indol-3-yl)methyl)acrylamide]	43 ± 1.1	214 to 218	16.4 ± 0.8	18.7 ± 0.7	20 ± 0.5	17.2 ± 0.3
COc1ccc(-c2nc(CNC(=O)/C=C/c3cc(OC)c(OC)c(OC)c3)cc3c2[nH]c2ccccc23)cc1 [Compound 3a, (E)-N-((1-(4-methoxyphenyl)-9H-pyrido[3,4-b]indol-3-yl)methyl)-3-(3,4,5-trimethoxyphenyl)acrylamide]	39.3 ± 1.7	148 to 150	13.4	19.7 ± 0.6	22.89 ± 0.2	17.4 ± 0.4
O=C(/C=C/c1ccc(F)cc1)NCc1cc2c([nH]c3ccccc32)c(-c2cccc(F)c2)n1 [Compound 1c, (E)-3-(4-fluorophenyl)-N-((1-(3-fluorophenyl)-9H-pyrido[3,4-b]indol-3-yl)methyl)acrylamide]	30.8 ± 2.1	258 to 264	16.5 ± 1.8	16.3 ± 0.3	24.3 ± 0.6	16.8 ± 0.8
O=C(/C=C/c1ccc(Cl)cc1)NCc1cc2c([nH]c3ccccc32)c(-c2cccc(F)c2)n1 [Compound 1f, (E)-3-(4-chlorophenyl)-N-((1-(3-fluorophenyl)-9H-pyrido[3,4-b]indol-3-yl)methyl)acrylamide]	43.6 ± 1.1	248 to 250	18.3 ± 0.8	19.6 ± 1.6	19.2 ± 0.6	18.2 ± 1.3
COc1cc(/C=C/C(=O)NCc2cc3c([nH]c4ccccc43)c(-c3cc(OC)c(OC)c(OC)c3)n2)ccc1O [Compound 2g, (E)-3-(4-hydroxy-3-methoxyphenyl)-N-((1-(3,4,5-trimethoxyphenyl)-9H-pyrido[3,4-b]indol-3-yl)methyl)acrylamide]	43.1 ± 1.3	175 to 178	17.6 ± 0.7	18.3 ± 1.4	26 ± 0.3	19 ± 0.9
COc1cc(-c2nc(CNC(=O)/C=C/c3cccc(O)c3)cc3c2[nH]c2ccccc23)cc(OC)c1OC [Compound 2h, (E)-3-(3-hydroxyphenyl)-N-((1-(3,4,5-trimethoxyphenyl)-9H-pyrido[3,4-b]indol-3-yl)methyl)acrylamide]	38.2 ± 1.5	175 to 178	16.8 ± 0.5	19.5 ± 1.5	23.65 ± 0.1	21.8 ± 0.8
COc1ccc(-c2nc(CNC(=O)/C=C/c3ccc(Cl)c(Cl)c3)cc3c2[nH]c2ccccc23)cc1 [Compound 3b, (E)-3-(3,4-dichlorophenyl)-N-((1-(4-methoxyphenyl)-9H-pyrido[3,4-b]indol-3-yl)methyl)acrylamide]	37.5 ± 1.4	188 to 190	16.4 ± 0.5	18.4 ± 0.7	21.6 ± 0.4	23 ± 0.5
COc1cc(/C=C/C(=O)NCc2cc3c([nH]c4ccccc43)c(-c3cccc(F)c3)n2)ccc1O [Compound 1g, (E)-N-((1-(3-fluorophenyl)-9H-pyrido[3,4-b]indol-3-yl)methyl)-3-(4-hydroxy-3-methoxyphenyl)acrylamide]	36.9 ± 1.9	205 to 210	17.9 ± 0.7	22.4 ± 1.1	23.9 ± 0.4	19.4 ± 1.1
COc1cc(/C=C/C(=O)NCc2cc3c([nH]c4ccccc43)c(-c3cccc(F)c3)n2)cc(OC)c1OC [Compound 1a, (E)-N-((1-(3-fluorophenyl)-9H-pyrido[3,4-b]indol-3-yl)methyl)-3-(3,4,5-trimethoxyphenyl)acrylamide]	36 ± 1.3	148 to 150	16.2 ± 1.5	17.9 ± 0.6	23 ± 0.7	19.8 ± 0.6
